{"source": "paper PMC9532951", "about": "“Identification and characterization of a novel SNAT2 (SLC38A2) inhibitor reveals synergy with glucose transport inhibition in cancer cells” (Frontiers in Pharmacology, 2022)", "key": {"HCC1806 wild-type cells": {"test_system": "HCC1806 wild-type cells", "assay": "FMP assay in the absence of amino acid substrate (non-specific effects)", "type": "cell-based, human", "method": "The FLIPR Membrane Potential Blue Explorer Kit (Molecular Devices) was used to characterise inhibitors and to optimise a high-throughput compound screen. Cells were seeded at approximately 60,000 cells/well on a 96-well plate and allowed to attach and grow overnight in a cell incubator. The next day, the cells were washed once with mHBSS and incubated in a starvation medium (composed of mHBSS with 1% dialysed heat-inactivated FBS, 23 mM NaHCO3, 10 U/ml penicillin and 10 μg/ml streptomycin) for 24 h. Cells were then washed once with mHBSS and incubated with 50 µl of the mHBSS-resuspended FMP assay dye and 50 µl of mHBSS (with or without inhibitors) and incubated at room temperature for 30 min. The plate was then placed in an EnSpire Multimode plate reader (PerkinElmer) and four sequential measurements of fluorescence were recorded as a baseline reference. […] The excitation wavelength was set to 530 nm and the emission was detected at 565 nm. The Δ fluorescent signal reported in the figures was taken 30 s after substrate addition. After the assay was complete, the liquid content of the plate was carefully removed, and the cell monolayer inspected to ensure it remained intact throughout the course of the assay."}, "HCC1806 cells": {"test_system": "HCC1806 cells", "assay": "Assay of glycolytic activity (extracellular lactate)", "type": "cell-based, human", "conditions": "57E 20 μM", "method": "Glycolytic activity was measured by detecting extracellular lactate levels over a 48-h time course. HCC1806 and HPAFII cells were seeded on a 24-well plate at approximately 500,000 and 700,000 cells/well, respectively, and incubated in growth medium overnight. The following day, the growth medium was aspirated and each well was washed once with growth medium and 1.3 ml of the treatment solution was added to begin the time-course. In addition to sampling the medium at the start of the experiment, 50 μL was collected from each well at the following time points: 9, 24 and 48 h. Samples were stored at −20°C until further use. Lactate was detected by an enzymatic assay, which consisted of combining in microcentrifuge tubes: 5 μl of sample, 45 μl of water; 25 μl of 40 mM NAD^+; 421 μl of buffer (1M glycine, 600 mM hydrazine sulfate, 5.6 mM EDTA; adjusted to pH 9.5 with sodium hydroxide); and 4 μL of L-lactate dehydrogenase solved at 300U/mL (3.33 mg/ml). The tubes were briefly vortexed and incubated for 15 min before transferring 200 μL of the mixture to a 96-well plate. The calibration curve spanned final concentrations from 5 to 500 μM. Absorbance was measured at 340 nm to detect NADH. Lactate production was normalised to total cellular protein per well as measured by the Bradford assay."}, "OVCAR3 cells": {"test_system": "OVCAR3 cells", "assay": "Growth assay (IncuCyte confluence), OVCAR3", "type": "cell-based, human", "how_it_was_run": "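OVCAR3 cells were seeded at about 3000 cells/well in 96-well plates in DMEM/F12 with 10% FBS and 2 mM glutamine for 24 h. They then received 300 μL/well of medium with compounds plus penicillin/streptomycin. Plates sat in an IncuCyte at 37°C and 5% CO2, and confluence was imaged every 6 h or at the endpoint once untreated controls passed 90%. Growth is given as % confluence, and curves were fitted with the Gompertz function in OriginPro.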"}, "SNAT2": {"biological_target": "T1, SNAT2 (Homo sapiens, UniProt Q96QD8)", "T1 sequence (Q96QD8 1-506)": "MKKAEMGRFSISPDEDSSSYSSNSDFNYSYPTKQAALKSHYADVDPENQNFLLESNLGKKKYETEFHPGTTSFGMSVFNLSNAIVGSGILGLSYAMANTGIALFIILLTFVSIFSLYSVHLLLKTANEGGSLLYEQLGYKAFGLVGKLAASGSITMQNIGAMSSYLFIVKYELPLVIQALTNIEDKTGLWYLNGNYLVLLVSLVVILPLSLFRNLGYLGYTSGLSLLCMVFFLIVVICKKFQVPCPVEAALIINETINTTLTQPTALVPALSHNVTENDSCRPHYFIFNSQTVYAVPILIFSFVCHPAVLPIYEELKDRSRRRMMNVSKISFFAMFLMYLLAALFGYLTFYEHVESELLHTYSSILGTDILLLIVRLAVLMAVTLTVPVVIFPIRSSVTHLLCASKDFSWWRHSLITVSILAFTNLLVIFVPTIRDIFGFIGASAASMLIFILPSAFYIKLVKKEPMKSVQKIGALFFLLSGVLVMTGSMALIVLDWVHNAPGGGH", "assay": "Radiolabelled proline uptake in amino acid depleted SKOV3 cells", "type": "cell-based", "set-up": "SKOV3 cells pre-incubated in starvation medium for 24 h to induce SNAT2 expression; endogenous in cells; host or cells: SKOV3 ovarian cancer cells, amino acid depleted for 15 or 24 h", "method": "Functional characterisation of plasma membrane transporters in human cancer cells was determined at 37°C using an array of radiolabelled amino acid substrates. Modified Hanks HEPES-buffered salts solution (mHBSS; 137 mM NaCl; 5.4 mM KCl; 2.7 mM K2HPO4; 1 mM CaCl2; 0.5 mM MgCl2; 0.44 mM KH2PO4; 0.4 mM MgSO4; 5 mM D-glucose; 5 mM HEPES; pH 7.4) was used to wash and incubate cells where sodium dependent transport was measured, while N-methyl-D-glucamine (NMDG) and potassium salts substituted sodium in NMDG mHBSS to measure sodium independent uptake. For the assay, cells were seeded in 35 mm dishes and, once confluent, were washed thrice with warm mHBSS solution and incubated with mHBSS containing an 100 µM amino acid at a final specific activity of ≥2000 cpm/nmol (U-[^14C]amino acids were from PerkinElmer). After 6 min, cells were washed thrice with ice-cold mHBSS, lysed with 500 µl of 0.1 M HCl, detached with a cell scraper and triturated. A 400 µl aliquot was used for scintillation counting, while the remainder was saved for protein mass quantification by Bradford assay. Transport rates were normalised to the protein content of the culture dish.\nIC50 were calculated using equation y=ymax(1−x/x+IC50)"}}, "note": "Values joined by “and” are separate entries in the source; they are usually repeats but may differ in a detail not shown here. Equal entries are not always repeated."}
{"smiles": "Cc1ccc(S(=O)(=O)N(C)c2ccsc2C(=O)NCc2ccccc2C(F)(F)F)cc1", "note": "[Compound 57_E, 3-(N-methyl (4-methylphenyl)sulfonamido)-N-(2-trifluoromethylbenzyl)thiophene-2-carboxamide]", "values": [{"measurement": "effect on FMP signal without substrate", "setting": "HCC1806 wild-type cells; 30 µM", "value": "small hyperpolarisation"}, {"measurement": "FMP fluorescence trace (Figure 4C)", "setting": "HCC1806 wild-type cells; time 0", "value": "66214 and 65985 and 59075"}, {"measurement": "FMP fluorescence trace (Figure 4C)", "setting": "HCC1806 wild-type cells; time 20", "value": "50115 and 66503 and 60514"}, {"measurement": "FMP fluorescence trace (Figure 4C)", "setting": "HCC1806 wild-type cells; time 40", "value": "49573 and 67066 and 60917"}, {"measurement": "FMP fluorescence trace (Figure 4C)", "setting": "HCC1806 wild-type cells; time 60", "value": "49249 and 67578 and 60989"}, {"measurement": "FMP fluorescence trace (Figure 4C)", "setting": "HCC1806 wild-type cells; time 80", "value": "48925 and 68056 and 61565"}, {"measurement": "FMP fluorescence trace (Figure 4C)", "setting": "HCC1806 wild-type cells; time 100", "value": "48207 and 68319 and 61663"}, {"measurement": "FMP fluorescence trace (Figure 4C)", "setting": "HCC1806 wild-type cells; time 120", "value": "47392 and 68434 and 62185"}, {"measurement": "FMP fluorescence trace (Figure 4C)", "setting": "HCC1806 wild-type cells; time 140", "value": "47194 and 68990 and 62194"}, {"measurement": "FMP fluorescence trace (Figure 4C)", "setting": "HCC1806 wild-type cells; time 160", "value": "46255 and 69305 and 62352"}, {"measurement": "FMP fluorescence trace (Figure 4C)", "setting": "HCC1806 wild-type cells; time 180", "value": "45269 and 69919 and 62492"}, {"measurement": "FMP fluorescence trace (Figure 4C)", "setting": "HCC1806 wild-type cells; time 200", "value": "44480 and 70206 and 63053"}, {"measurement": "FMP fluorescence trace (Figure 4C)", "setting": "HCC1806 wild-type cells; time 220", "value": "43946 and 70155 and 63572"}, {"measurement": "FMP fluorescence trace (Figure 4C)", "setting": "HCC1806 wild-type cells; time 240", "value": "43376 and 70703 and 63707"}, {"measurement": "FMP fluorescence trace (Figure 4C)", "setting": "HCC1806 wild-type cells; time 260", "value": "42447 and 71161 and 64093"}, {"measurement": "FMP fluorescence trace (Figure 4C)", "setting": "HCC1806 wild-type cells; time 280", "value": "41764 and 71707 and 64350"}, {"measurement": "FMP fluorescence trace (Figure 4C)", "setting": "HCC1806 wild-type cells; time -20", "value": "65818 and 65842 and 59063"}, {"measurement": "FMP fluorescence trace (Figure 4C)", "setting": "HCC1806 wild-type cells; time -40", "value": "65477 and 66036 and 58494"}, {"measurement": "lactate production", "setting": "HCC1806 cells", "value": "increased"}, {"measurement": "Growth (Figure 6A)", "setting": "OVCAR3 cells; concentration 1", "value": "94.3 and 98.2 and 97.5"}, {"measurement": "Growth (Figure 6A)", "setting": "OVCAR3 cells; concentration 3", "value": "91.1 and 97.6 and 98.2"}, {"measurement": "Growth (Figure 6A)", "setting": "OVCAR3 cells; concentration 10", "value": "93.85 and 97.6 and 98.05"}, {"measurement": "Growth (Figure 6A)", "setting": "OVCAR3 cells; concentration 30", "value": "90.7 and 97.95"}, {"measurement": "Growth (Figure 6A)", "setting": "OVCAR3 cells; concentration 100", "value": "89.25 and 92.95 and 91.35"}, {"measurement": "SNAT2 transport rate of proline", "setting": "SNAT2; Concentration 0.01 uM, betaine resistant transport subtracted", "value": 5.421, "unit": "nmol / mg protein x 6 min"}, {"measurement": "SNAT2 transport rate of proline", "setting": "SNAT2; Concentration 0.03 uM", "value": 5.227, "unit": "nmol / mg protein x 6 min"}, {"measurement": "SNAT2 transport rate of proline", "setting": "SNAT2; Concentration 0.1 uM", "value": 4.344, "unit": "nmol / mg protein x 6 min"}, {"measurement": "SNAT2 transport rate of proline", "setting": "SNAT2; Concentration 0.3 uM", "value": 3.331, "unit": "nmol / mg protein x 6 min"}, {"measurement": "SNAT2 transport rate of proline", "setting": "SNAT2; Concentration 1 uM", "value": 2.267, "unit": "nmol / mg protein x 6 min"}, {"measurement": "SNAT2 transport rate of proline", "setting": "SNAT2; Concentration 3 uM", "value": -0.2231, "unit": "nmol / mg protein x 6 min"}, {"measurement": "SNAT2 transport rate of proline", "setting": "SNAT2; Concentration 10 uM", "value": -0.6681, "unit": "nmol / mg protein x 6 min"}, {"measurement": "IC50", "setting": "SNAT2; betaine-sensitive fraction of proline uptake, SKOV3 AA- (15h)", "value": "800 ± 400", "unit": "nM"}, {"measurement": "IC50", "setting": "SNAT2; in two different assays", "value": "800 to 3000", "unit": "nM"}]}
